# Like-named read-outs stand apart in the source and are kept apart here.
# Assays:
# [1] = system: Her2-positive human BT474 breast tumor cells; assay: Cytotoxicity assay (growth inhibition, CellTiter-Glo) on BT474
# Experimental: (§1) Her2-positive human BT474 breast tumor cells (BT474 for short), Her2 low expression human MCF-7 breast tumor cells (MCF-7 for short), and human breast tumor cell strain MCF7-Her2 with stable-transfected Her2 outside MCF-7 (MCF-7-Her2 for short) were used (they were prepared by the methods disclosed in the literatures for preparing recombinant cells: Teemu T. Junttila, et al., Breast. Cancer Res. Treat., 2011, 128, 347 and Jeffrey J. Wallin et al., Clin. Cancer Res., 2012, 18, 3901, the contents of which are incorporated herein by reference in their entireties). The growth inhibition of tumor cells by T-CE-040 and T-CE-063 antibody drug conjugates were evaluated. BT474, MCF7-Her2 and MCF-7 were digested with 0.25% (v/v) trypsin and the cells were stripped and then suspended in 100 μL complete medium. 2,000 cells were inoculated in a 96-well plate and cultured, grew adherently overnight at 37° C., then 100 μL T-CE-040 and T-CE-063 antibody drug conjugates with different concentration gradients and the complete medium were added. After 120 hours, relative cell proliferation analysis was performed by adding 50 μL CellTiter-Glo® […] Cell Activation Reagent (CellTiter-GloB Luminescent, Promega).
# [2] = system: Her2 low expression human MCF-7 breast tumor cells; assay: Cytotoxicity assay (growth inhibition, CellTiter-Glo) on MCF-7
# Experimental: as §1
# [3] = system: human breast tumor cell strain MCF7-Her2 with stable-transfected Her2; assay: Cytotoxicity assay (growth inhibition, CellTiter-Glo) on MCF7-Her2
# Experimental: as §1
# [4] = Homo sapiens, BT-474, 120 h, read-out: Cytotoxicity assay IC50 BT474, BT474 cells, 120 hours, CellTiter-Glo
# [5] = Homo sapiens, MCF7, 120 h, read-out: Cytotoxicity assay IC50 MCF7, MCF-7 cells, 120 hours, CellTiter-Glo
# [6] = Homo sapiens, 120 h, read-out: Cytotoxicity assay IC50 MCF-Her2, MCF7-Her2 cells, 120 hours, CellTiter-Glo
smiles,measurement,setting,value
COc1cc2cc(c1Cl)N(C)C(=O)C[C@H](OC(=O)[C@H](C)OCCSC1CC(=O)N(C[C@H]3CC[C@H](C(=O)ON4C(=O)CCC4=O)CC3)C1=O)[C@]1(C)O[C@H]1[C@H](C)C1C[C@@](O)(NC(=O)O1)[C@H](OC)/C=C/C=C(\C)C2 (stereo partly drawn) [CE-037],IC50,[1]; [4],49.3 nM
same,IC50,[2]; [5],136 nM
same,IC50,[3]; [6],70.6 nM
COc1cc2cc(c1Cl)N(C)C(=O)C[C@H](OC(=O)[C@H](C)N(C)C(CCSC1CC(=O)N(C[C@H]3CC[C@H](C(=O)ON4C(=O)CCC4=O)CC3)C1=O)C(F)(F)F)[C@]1(C)O[C@H]1[C@H](C)C1C[C@@](O)(NC(=O)O1)[C@H](OC)/C=C/C=C(\C)C2 (stereo partly drawn) [CE-038],IC50,[1]; [4],163 nM
same,IC50,[2]; [5],873 nM
same,IC50,[3]; [6],425 nM
COc1cc2cc(c1Cl)N(C)C(=O)CC(OC(=O)[C@H](C)N(C)C(CCSSCCCC(=O)ON1C(=O)CCC1=O)C(F)(F)F)[C@]1(C)O[C@H]1[C@H](C)[C@@H]1C[C@@](O)(NC(=O)O1)[C@H](OC)/C=C/C=C(\C)C2 (stereo partly drawn) [CE-041],IC50,[1]; [4],68.3 nM
same,IC50,[2]; [5],185 nM
same,IC50,[3]; [6],126 nM
COc1cc2cc(c1Cl)N(C)C(=O)C[C@H](OC(=O)[C@H](C)OCCOCCOCC(=O)ON1C(=O)CCC1=O)[C@]1(C)O[C@H]1[C@H](C)C1C[C@@](O)(NC(=O)O1)[C@H](OC)/C=C/C=C(\C)C2 [CE-045],IC50,[1]; [4],133 nM
same,IC50,[2]; [5],91.2 nM
same,IC50,[3]; [6],69.2 nM
COc1cc2cc(c1Cl)N(C)C(=O)C[C@H](OC(=O)[C@H](C)OCCOCCOCCOCCOCCOCCN1C(=O)C=CC1=O)[C@]1(C)O[C@H]1[C@H](C)C1C[C@@](O)(NC(=O)O1)[C@H](OC)/C=C/C=C(\C)C2 [CE-046],IC50,[1]; [4],375 nM
same,IC50,[2]; [5],462 nM
same,IC50,[3]; [6],232 nM
COc1cc2cc(c1Cl)N(C)C(=O)C[C@H](OC(=O)[C@H](C)OCCOCCOCCN1C(=O)C=CC1=O)[C@]1(C)O[C@H]1[C@H](C)C1C[C@@](O)(NC(=O)O1)[C@H](OC)/C=C/C=C(\C)C2 [CE-047],IC50,[1]; [4],325 nM
same,IC50,[2]; [5],327 nM
same,IC50,[3]; [6],134 nM
COc1cc2cc(c1Cl)N(C)C(=O)C[C@H](OC(=O)COCCCSC1CC(=O)N(C[C@H]3CC[C@H](C(=O)ON4C(=O)CCC4=O)CC3)C1=O)[C@]1(C)O[C@H]1[C@H](C)C1C[C@@](O)(NC(=O)O1)[C@H](OC)/C=C/C=C(\C)C2 (stereo partly drawn) [CE-048],IC50,[1]; [4],266 nM
same,IC50,[2]; [5],171 nM
same,IC50,[3]; [6],72.1 nM
COc1cc2cc(c1Cl)N(C)C(=O)C[C@H](OC(=O)C(C)(C)OCCCSC1CC(=O)N(C[C@H]3CC[C@H](C(=O)ON4C(=O)CCC4=O)CC3)C1=O)[C@]1(C)O[C@H]1[C@H](C)C1C[C@@](O)(NC(=O)O1)[C@H](OC)/C=C/C=C(\C)C2 (stereo partly drawn) [CE-049],IC50,[1]; [4],138 nM
same,IC50,[2]; [5],207 nM
same,IC50,[3]; [6],139 nM
COc1cc2cc(c1Cl)N(C)C(=O)C[C@H](OC(=O)[C@H](C)OCCOCCOCCNC(=O)CBr)[C@]1(C)O[C@H]1[C@H](C)C1C[C@@](O)(NC(=O)O1)[C@H](OC)/C=C/C=C(\C)C2 [CE-050],IC50,[1]; [4],26.1 nM
same,IC50,[2]; [5],14.4 nM
same,IC50,[3]; [6],7 nM
COc1cc2cc(c1Cl)N(C)C(=O)C[C@H](OC(=O)[C@H](C)OCCCSC1CC(=O)N(C[C@H]3CC[C@H](C(=O)ON4C(=O)CCC4=O)CC3)C1=O)[C@]1(C)O[C@H]1[C@H](C)C1C[C@@](O)(NC(=O)O1)[C@H](OC)/C=C/C=C(\C)C2 (stereo partly drawn) [CE-051],IC50,"[1]; read-out: Cytotoxicity assay IC50 BT474, BT474 cells, 120 hours, CellTiter-Glo",112 nM
same,IC50,"[2]; read-out: Cytotoxicity assay IC50 MCF7, MCF-7 cells, 120 hours, CellTiter-Glo",119 nM
same,IC50,"[3]; read-out: Cytotoxicity assay IC50 MCF-Her2, MCF7-Her2 cells, 120 hours, CellTiter-Glo",51.4 nM
COc1cc2cc(c1Cl)N(C)C(=O)C[C@H](OC(=O)[C@H](C)OCCOCCOCCOCCOCCOCCNC(=O)CBr)[C@]1(C)O[C@H]1[C@H](C)C1C[C@@](O)(NC(=O)O1)[C@H](OC)/C=C/C=C(\C)C2 [CE-052a],IC50,[1]; [4],33.1 nM
same,IC50,[2]; [5],18.4 nM
same,IC50,[3]; [6],9.8 nM
COc1cc2cc(c1Cl)N(C)C(=O)C[C@H](OC(=O)C1CCC(CSSC)OC1)[C@]1(C)O[C@H]1[C@H](C)C1C[C@@](O)(NC(=O)O1)[C@H](OC)/C=C/C=C(\C)C2 (stereo partly drawn) [CE-053-1],IC50,[1]; [4],22 nM
same,IC50,[2]; [5],22 nM
same,IC50,[3]; [6],13 nM
COc1cc2cc(c1Cl)N(C)C(=O)C[C@H](OC(=O)C(COCCSSC)OC)[C@]1(C)O[C@H]1[C@H](C)C1C[C@@](O)(NC(=O)O1)[C@H](OC)/C=C/C=C(\C)C2 (stereo partly drawn) [CE-056],IC50,[1]; [4],39 nM
same,IC50,[2]; [5],17 nM
same,IC50,[3]; [6],217 nM
"COc1cc2cc(c1Cl)N(C)C(=O)C[C@H](OC(=O)[C@@H](C)N(C)C(=O)CCS)C1(C)O[C@H]1[C@H](C)C1C[C@@](O)(NC(=O)O1)[C@H](OC)/C=C/C=C(\C)C2 (stereo partly drawn) [DM1, N2′-deacetyl-N2′-(3-mercapto-1-oxopropyl)maytansine, reference compound]",IC50,[1]; [4],21 nM
same,IC50,[2]; [5],16 nM
same,IC50,[3]; [6],14 nM
"COc1cc2cc(c1Cl)N(C)C(=O)C[C@H](OC(=O)[C@@H](C)N(C)C(=O)CCSSC)C1(C)O[C@H]1[C@H](C)C1C[C@@](O)(NC(=O)O1)[C@H](OC)/C=C/C=C(\C)C2 (stereo partly drawn) [DM1-SMe, reference compound]",IC50,"[1]; Homo sapiens, BT-474, 120 h, read-out: Cytotoxicity assay IC50 BT474",9.3 nM
same,IC50,"[2]; Homo sapiens, MCF7, 120 h, read-out: Cytotoxicity assay IC50 MCF7",9.5 nM
same,IC50,"[3]; Homo sapiens, 120 h, read-out: Cytotoxicity assay IC50 MCF-Her2",7.3 nM
COc1cc2cc(c1Cl)N(C)C(=O)C[C@H](OC(=O)[C@H](C)OCCOCCSC1CC(=O)N(CCC(=O)NCCOCCOCCC(=O)ON3C(=O)CCC3=O)C1=O)[C@]1(C)O[C@H]1[C@H](C)C1C[C@@](O)(NC(=O)O1)[C@H](OC)/C=C/C=C(\C)C2 (stereo partly drawn) [XDCE-M-001],IC50,[1]; [4],456 nM
same,IC50,[2]; [5],330 nM
same,IC50,[3]; [6],182 nM
COc1cc2cc(c1Cl)N(C)C(=O)C[C@H](OC(=O)[C@H](C)OCCOCCSC1CC(=O)N(CCC(=O)NCCOCCOCCOCCC(=O)ON3C(=O)CCC3=O)C1=O)[C@]1(C)O[C@H]1[C@H](C)C1C[C@@](O)(NC(=O)O1)[C@H](OC)/C=C/C=C(\C)C2 (stereo partly drawn) [XDCE-M-002],IC50,[1]; [4],41.6 nM
same,IC50,[2]; [5],51.5 nM
same,IC50,[3]; [6],64.3 nM
